Literature values as cited in paper PMC6647941 (ACS Omega, 2019).

Conditions: dopamine transporter tracer ref 12

In the case of CN1[C@H]2CC[C@@H]1[C@@H](CN(CC[S-])CC[N-]CC[S-])[C@@H](c1ccc(Cl)cc1)C2.[O]=[99Tc+4] [^99mTc-TRODAT-1], the brain uptake is given as 0.40 % ID/g.
